The test system of one data set is wild type murine SMC. The data set is described as follows: SMC migration assay, modified Boyden chamber, bFGF-induced. Type of data set: cell-based, mouse. How it is done:
(§1) Cell Culture: The murine aortic SMCs were obtained from the explant migration experiments described below, and were subcultured in DMEM containing 20% fetal bovine serum (FBS) at 37° C. in a humidified 95% air-5% CO2 atmosphere (Kobayashi et al., 1993). The growth medium was changed every other day until 80% confluence was reached. The cells used for experiments were from passages #3-6. Verification of SMC phenotype was determined by positive fluorescent staining for α-actin and negative staining for Factor VIII antigen. Cell viability was 95% or greater as determined by trypan blue exclusion at the conclusion of each experiment.
SMC migration assay: Migration was measured using a 48 well modified Boyden chamber housing a polycarbonate filter with 8 μm pores as described previously (Bornfeldt et al., 1994; Poon et al., 1996). Each membrane was coated with 0.1 mg/ml of collagen in 0.2 M acetic acid for 24 hours before each assay. For each assay, 50 ng/ml of bFGF in DMEM was loaded in quadruplicate wells in the bottom chamber. BSA (0.2% in DMEM without bFGF) was used as a negative control. […] An equal number of cells (2×10^5/ml) in 50 μl was loaded to the top chamber of each well. After 6 hours, non-migrating cells were scraped from the upper surface of the filter. Cells on the lower surface were fixed with methanol and stained with Giemsa stain (Fisher Scientific, N.Y.) . The number of SMC on the lower surface of the filter was determined by counting four high power (X200) fields of constant area per well. Values are expressed as the percentage of cells migrating in response to bFGF after subtraction of the negative control (DMEM+BSA). Experiments were performed at least twice using quadruplicate wells.

For a further data set, the system named is p27 (−/−) SMC. The data set is described as above. In kind it is cell-based, mouse. How it is done: as §1
SMC migration assay: Migration was measured using a 48 well modified Boyden chamber housing a polycarbonate filter with 8 μm pores as described previously (Bornfeldt et al., 1994; Poon et al., 1996). Each membrane was coated with 0.1 mg/ml of collagen in 0.2 M acetic acid for 24 hours before each assay. For each assay, 50 ng/ml of bFGF in DMEM was loaded in quadruplicate wells in the bottom chamber. BSA (0.2% in DMEM without bFGF) was used as a negative control. Rapamycin, FK506 or C3 exoenzyme was directly added to the growth medium for either 48 hours (rapamycin and FK506) or 16 hours (C3 exoenzyme) before the cells were trypsinized, and counted with a hemacytometer. An equal number of cells (2×10^5/ml) in 50 μl was loaded to the top chamber of each well. After 6 hours, non-migrating cells were scraped from the upper surface of the filter. Cells on the lower surface were fixed with methanol and stained with Giemsa stain (Fisher Scientific, N.Y.) . The number of SMC on the lower surface of the filter was determined by counting four high power (X200) fields of constant area per well. Values are expressed as the percentage of cells migrating in response to bFGF after subtraction of the negative control (DMEM+BSA). Experiments were performed at least twice using quadruplicate wells.

For data set [1], the system named is aortic SMC of wild type C57BL/6 mice. In words: Aortic SMC explant migration after in vivo treatment. Also noted: species or system mouse. How it is done:
(§2) Aortic SMC explant migration: Wild type C57BL/6 mice were purchased from Jackson Laboratory (Bar Harbor, Me.). The p27 (+/−) and p27 (−/−) knockout mice were kindly provided by Dr. Andrew Koff of Memorial Sloan-Kettering Cancer Institute (Kiyokawa et al., 1996). […] The control group was treated with vehicle alone (0.2% sodium CMC, polysorbate 0.25%; Sigma, St. Louis, Mo.). At the conclusion of the treatment protocol, the mice were euthanized with 100 mg/kg of pentobarbital, the aortas excised and the adventitia and surrounding connective tissue were removed. The aortas were then opened by a longitudinal cut and the intima, as well as a thin portion of the subjacent media, were removed. The media were divided into 2 mm×2 mm pieces and placed in 6 well tissue culture plates (35 mm, 22.6 mm diameter, Costar, Cambridge, Mass.) containing DMEM with 20% FBS. The culture media was changed every other day. The migration of SMC out of the explant was observed under the microscope daily following explant. The total number of cells explanted was determined for each animal's explants on a daily basis. The results in FIG. 5 are presented as the mean percentage (±SD) of inhibition of migration (by rapamycin or taxol) as compared to control (untreated) for at least 4 animals from each group. The SMC phenotype was confirmed as previously described (Spector et al., 1997).

For data set [2], the system named is aortic SMC of p27 (+/−) mice. The data set is described as above. The note with it: 4 mg/kg/day for 5 days IP, p<0.05. Set-up: species or system mouse. How it is done: Aortic SMC explant migration: Wild type C57BL/6 mice were purchased from Jackson Laboratory (Bar Harbor, Me.). The p27 (+/−) and p27 (−/−) knockout mice were kindly provided by Dr. Andrew Koff of Memorial Sloan-Kettering Cancer Institute (Kiyokawa et al., 1996). The mice received one of three different treatment protocols (9 mg/kg/day for 7 days, 4 mg/kg/day for 5 days, or 2 mg/kg/day for 2 days) of rapamycin via intraperitoneal (IP) injection. The control group was treated with vehicle alone (0.2% sodium CMC, polysorbate 0.25%; Sigma, St. Louis, Mo.). At the conclusion of the treatment protocol, the mice were euthanized with 100 mg/kg of pentobarbital, the aortas excised and the adventitia and surrounding connective tissue were removed. The aortas were then opened by a longitudinal cut and the intima, as well as a thin portion of the subjacent media, were removed. The media were divided into 2 mm×2 mm pieces and placed in 6 well tissue culture plates (35 mm, 22.6 mm diameter, Costar, Cambridge, Mass.) containing DMEM with 20% FBS. The culture media was changed every other day. The migration of SMC out of the explant was observed under the microscope daily following explant. The total number of cells explanted was determined for each animal's explants on a daily basis. […]

For data set [3], the system named is SMC obtained from wild type and p27 (−/−) animals. In words: Cell viability (trypan blue exclusion) and morphology of SMC. In kind it is cell-based, mouse. How it is done:
as §1

In data set [4] the test system is aortic SMC of p27 (−/−) knockout mice. The data set is described as follows: Aortic SMC explant migration after in vivo treatment. Set-up: species or system mouse. The conditions noted are these: 20 mg/kg/day for 7 days. How it is done:
as §2

`CO[C@H]1C[C@@H]2CC[C@@H](C)[C@@](O)(O2)C(=O)C(=O)N2CCCC[C@H]2C(=O)O[C@H]([C@H](C)C[C@@H]2CC[C@@H](O)[C@H](OC)C2)CC(=O)[C@H](C)/C=C(\C)[C@@H](O)[C@@H](OC)C(=O)[C@H](C)C[C@H](C)/C=C/C=C/C=C/1C` [rapamycin]: the IC50 was about 0.002 µM in the data set with wild type murine SMC (Mus musculus, wild type murine SMC, treatment for 48 hours, read-out: IC50, inhibition of bFGF-induced SMC migration) and about 0.2 µM with p27 (−/−) SMC (Mus musculus, p27 (−/−) cells, treatment for 48 hours, read-out: IC50, inhibition of bFGF-induced SMC migration). For the same compound, the “effect on SMC migration of addition immediately prior to incubation” value with wild type murine SMC (added to upper or lower chamber immediately prior to incubation, genotype not stated) is “no effect”. Besides, the inhibition – broadly, how much of the control response was suppressed – at 0.1 µM in the data set on p27 (−/−) SMC (Mus musculus, p27 (−/−) SMC, 100 nM, 48 hours) was about 35%. Besides, the inhibition of migration result in the data set with p27 (−/−) SMC (p27 (−/−) SMC, 1 nM to 10 nM, 48 hours) is recorded as “no significant inhibition”. In the data set with p27 (−/−) SMC (p27 (−/−) vs wild type SMC), the “increased IC50 in p27 (−/−) cells as compared to wild type SMC” value is on record as 100 fold. The “inhibition of explant migration as compared to untreated animals” value in data set [1] (wild type, 4 mg/kg/day for 5 days IP, p<0.05) is on record as about 85%; in data set [2] it was about 85%. In addition, in data set [3], the “cell viability, treated vs untreated” value is “no differences”.

`CC(=O)O[C@H]1C(=O)[C@@]2(C)[C@H]([C@H](OC(=O)c3ccccc3)[C@]3(O)C[C@H](OC(=O)[C@H](O)[C@@H](NC(=O)c4ccccc4)c4ccccc4)C(C)=C1C3(C)C)[C@]1(OC(C)=O)CO[C@@H]1C[C@@H]2O` [taxol, paclitaxel]: in data set [4], the “difference in inhibition of explant migration between wild type and p27 (−/−) animals” value was “No differences”. For the same compound, the “inhibition of explant migration (FIG. 3C)” value in data set [4] (p27 (−/−)) is “inhibited migration”; in data set [1] (p27 (+/+), 20 mg/kg/day for 7 days) it was “inhibited migration”.

On to `C=CC[C@@H]1/C=C(\C)C[C@H](C)C[C@H](OC)[C@H]2O[C@@](O)(C(=O)C(=O)N3CCCC[C@H]3C(=O)O[C@H](/C(C)=C/[C@@H]3CC[C@@H](O)[C@H](OC)C3)[C@H](C)[C@@H](O)CC1=O)[C@H](C)C[C@@H]2OC` [FK506], for which the “effect on murine SMC migration (FIG. 1A)” value in the data set with wild type murine SMC (wild type SMC, 48 hours) is reported as “no effect”. Also, the “effect on murine SMC migration (FIG. 1B)” value with p27 (−/−) SMC (p27 (−/−) SMC, 48 hours) is reported as “no effect”.
